Results on 18 compounds are retold here after ChEMBL document CHEMBL4266055, “Optimization of Phenyl Indole Inhibitors of the AAA+ ATPase p97” (ACS Med Chem Lett, 2018).

Values after ≈ are worked out from the molar mass of the structure shown.

Data set [1] deals with T1, Transitional endoplasmic reticulum ATPase (Homo sapiens, UniProt P55072).
Description: Inhibition of recombinant full length human p97 (1 to 806 residues) expressed in Escherichia coli Rosetta 2 (DE3) using 100 uM ATP as substrate after 90 mins by luminescence assay
Data set [2] in a line: Aqueous solubility of the compound in pH 7.4 buffer by UV/Vis spectroscopic analysis. It is filed as physicochemical.
Data set [3] in a line: Half life in human liver microsomes at 10 uM in presence of NADPH/G6PD by LC-MS/MS analysis. It is filed as ADME, microsome.
Data set [4] can be described thus: Half life in mouse liver microsomes at 10 uM in presence of NADPH/G6PD by LC-MS/MS analysis. In kind it is ADME, microsome.
The target of data set [5] is T1, Transitional endoplasmic reticulum ATPase. The experiment in a line: Inhibition of human p97 in human HeLa cells harboring UbG76V-GFP assessed as accumulation of UbG76V after 1 hr by microscopic analysis. It is filed as cell-based.
The target is the same in data set [6]. The experiment in a line: Inhibition of human p97 in human HeLa cells harboring UbG76V-GFP assessed as accumulation of UbG76V after 6 hrs by microscopic analysis. In kind it is cell-based.
For data set [7], the system named is Panel NCI-60 (60 carcinoma cell lines). Kind of data set: Growth inhibition of human NCI60 cells after 48 hrs by sulforhodamine B assay. In kind it is functional.
Data set [8] concerns the target T1, Transitional endoplasmic reticulum ATPase. Kind of data set: Inhibition of recombinant full length human p97 (1 to 806 residues) expressed in Escherichia coli Rosetta 2 (DE3) using 20 uM ATP as substrate after 90 mins by luminescence assay.

T1 sequence (P55072 whole entry): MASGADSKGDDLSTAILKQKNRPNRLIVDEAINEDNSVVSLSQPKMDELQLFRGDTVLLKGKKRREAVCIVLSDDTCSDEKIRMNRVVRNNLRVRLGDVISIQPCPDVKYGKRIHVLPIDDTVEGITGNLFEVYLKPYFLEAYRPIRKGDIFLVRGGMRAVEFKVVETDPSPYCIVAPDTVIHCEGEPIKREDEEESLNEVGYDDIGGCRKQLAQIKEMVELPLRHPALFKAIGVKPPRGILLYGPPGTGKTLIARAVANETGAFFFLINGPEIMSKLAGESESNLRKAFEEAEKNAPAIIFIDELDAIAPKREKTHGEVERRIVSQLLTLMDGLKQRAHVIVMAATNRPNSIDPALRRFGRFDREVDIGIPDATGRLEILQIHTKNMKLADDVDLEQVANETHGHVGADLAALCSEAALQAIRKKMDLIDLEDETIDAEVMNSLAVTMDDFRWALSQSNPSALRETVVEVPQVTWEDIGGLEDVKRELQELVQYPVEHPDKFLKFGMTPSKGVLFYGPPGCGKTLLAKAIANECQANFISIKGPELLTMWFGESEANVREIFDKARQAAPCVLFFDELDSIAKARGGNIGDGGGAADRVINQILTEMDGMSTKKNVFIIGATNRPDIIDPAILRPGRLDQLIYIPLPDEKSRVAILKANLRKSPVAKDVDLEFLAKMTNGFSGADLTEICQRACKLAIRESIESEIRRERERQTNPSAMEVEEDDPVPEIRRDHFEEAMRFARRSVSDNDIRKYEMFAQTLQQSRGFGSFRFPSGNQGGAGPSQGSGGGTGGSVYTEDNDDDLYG

For `CN(C)CCNC1CCN(c2cccc(-c3cc4cc(F)ccc4[nH]3)c2)CC1`, in data set [1], the IC50 came out at 800 nM. In turn, `Cc1cc(OCc2nnc(SC3CCCC3)n2-c2cccnc2)ccc1-c1ccc(S(C)(=O)=O)cc1` gave a solubility in data set [2] of 86 µM (≈ 44.8 µg/mL). The t1/2 in data set [3] and in data set [4] was < 0.167 h each time. As for `CC(C)N1CCN(C2(CNC3CCN(c4cccc(-c5cc6cc(F)ccc6[nH]5)c4)CC3)COC2)CC1`, it took 90 nM to reach half-maximal inhibition in data set [1] (IC50).

`CC(C)(C)N1CCN(CCNC2CCN(c3cccc(-c4cc5ccccc5[nH]4)c3)CC2)CC1` displayed an IC50 in data set [1] of 210 nM.

`c1cc(-c2cc3ccccc3[nH]2)cc(N2CCC(NCCN3CCNCC3)CC2)c1` came in with an IC50 in data set [1] of 330 nM. Still for that read-out and setting: then `CC(C)N1CCN(C2CCN(c3cccc(-c4cc5cc(F)ccc5[nH]4)c3)CC2)CC1`, with 4760 nM. For the compound `CC(C)N1CCN(C2(CNC3CCN(c4cccc(-c5cc6cc(F)ccc6[nH]5)c4)CC3)CCC2)CC1`, the IC50 in data set [1] stood at 100 nM.

`CN1CCN(CCNC2CCN(c3cccc(-c4cc5ccccc5[nH]4)c3)CC2)CC1` displayed an IC50 in data set [1] of 280 nM.

With `CC(C)N1CCN(C(=O)CCNC2CCN(c3cccc(-c4cc5cc(F)ccc5[nH]4)c3)CC2)CC1`, the IC50 in data set [1] came to 190 nM. As to `c1ccc(CCNC2CCN(c3cccc(-c4cc5ccccc5[nH]4)c3)CC2)nc1`, the half-inhibitory concentration (IC50) in data set [1] is 1050 nM. The compound `CN1CCN(C2(CNC3CCN(c4cccc(-c5cc6cc(F)ccc6[nH]5)c4)CC3)CCC2)CC1` came in with a solubility in data set [2] of 330 µM (≈ 157 µg/mL). Also, the t1/2 in data set [3] is 7.92 h; in data set [4], 4.62 h. For the same compound, the EC50 in data set [5] is 15000 nM; in data set [6], > 40000 nM. Besides, it took 2000 nM to inhibit growth in data set [7] by half (GI50). The compound also gave a concentration for half-maximal inhibition (IC50) in data set [1] of 20 nM. Compound `CC(C)N1CCN(CCNC2CCN(c3cccc(-c4cc5cc(F)ccc5[nH]4)c3)CC2)CC1` displayed an IC50 in data set [1] of 70 nM.

In the case of `Cn1ncnc1CCNC1CCN(c2cccc(-c3cc4ccccc4[nH]3)c2)CC1`, the half-maximal inhibitory concentration (IC50) was determined as 2400 nM in data set [8] and 990 nM in data set [1]. `CC(C)N1CCC(NC2CCN(c3cccc(-c4cc5cc(F)ccc5[nH]4)c3)CC2)CC1`: the solubility in data set [2] turned out to be 380 µM (≈ 165 µg/mL). Further, the figures for the t1/2 in data set [3] and in data set [4] were 9.48 h and 6.43 h, respectively. Moreover, the EC50 in data set [5] is 19000 nM; in data set [6] it was > 40000 nM. For the same compound, the 50% growth inhibitory concentration (GI50) in data set [7] is 1580 nM. Further, the IC50 in data set [1] amounted to 50 nM.

`CC(C)N1CCN(CCCNC2CCN(c3cccc(-c4cc5ccccc5[nH]4)c3)CC2)CC1` yielded an IC50 in data set [1] of 380 nM. Same read-out and setting: then `c1ccc(CNC2CCN(c3cccc(-c4cc5ccccc5[nH]4)c3)CC2)nc1`, with 1060 nM. Still for that read-out and setting: then `c1ccc(CCNC2CCN(c3cccc(-c4cc5ccccc5[nH]4)c3)CC2)cc1`, with 2610 nM; and `CCN1CCN(CCNC2CCN(c3cccc(-c4cc5ccccc5[nH]4)c3)CC2)CC1`, with 200 nM.
